Several values for one entry are separate records, joined by “and”; a condition that tells them apart may be missing. Equal values may be shown once. Entries after “also recorded” stand apart in the source; their conditions may differ.
How the values were obtained:
[1] = 4-month biomarker stability study in urine samples; format: physicochemical, human; settings: PDE urine, −70° C.
[2] = 4-month biomarker stability study in urine samples; format: physicochemical, human; settings: for concentration: PDE urine; for decrease at 126 days: room temperature
Excerpt: Liquid chromatography tandem mass spectrometry experiments: Lysine metabolites were first analyzed based on previously published liquid chromatography tandem mass spectrometry (LC-MS/MS) methods (Struys, Jakobs 2007, Molecular Genetics and Metabolism 91:405; Yuzyuk et al. 2016, J Chromatogr B Analyt Technol Biomed Life Sci, 1017-1018:145-52). As the goal of this study was to replicate current newborn screening modalities, we focused on a non-derivatized MS/MS analytical method (Nagy et al. 2003, Rapid Commun Mass Spectrom 17:983-90). Samples were analyzed via electrospray ionization in positive ion mode (ESI+) using an Applied Biosystems Sciex 4000 (Applied Biosystems) equipped with a Shimadzu HPLC (Shimadzu Scientific Instruments) and a Leap auto-sampler (LEAP Technologies). Methanol (MeOH):acetonitrile (ACN) 200 μL 1:1 mixture was added to 100 μL of plasma, blood, urine, CSF or standard materials. Plasma and blood samples were centrifuged at 10,000 rpm and the supernatants used. Urine and CSF samples required no additional processing. […] Samples were analyzed using the following conditions: i) ion-spray voltage of 5500 V; ii) temperature, 450° C.; iii) collision using nitrogen gas with curtain gas (CUR) set at 10 and collisionally activated dissociation (CAD) set at 12; iv) ion source gas one (GS1) and two (GS2) were set at 30; v) entrance potential was set at 10 V; vi) quadruple one (Q1) and (Q3) were set on unit resolution; vii) dwell time was set at 200 msec.
Biomarker stability studies: In a 4-month stability study, fresh urine samples (400 μL) from two subjects were aliquoted into 1.5 mL Eppendorf tubes and stored either at room temperature (22±2° C.), freezer (−13±3° C.) or deep freezer (−77±3° C.) and sampled over four-months.
(§1) As a primary aim of this research was to evaluate biomarkers suitable for newborn screening, we analyzed blood spots (Whatman 903 Lot W-041) from two subjects and controls. […] A freeze-thaw study and a 4-month stability study was done in urine samples from subjects 1 and 2 (Table 4).
(§2) To quantify 6-Oxo-PIP and Δ^1-P6C/P6CH, we prepared standard curves ranging from 0.5-500 μM from control urine (FIGS. 5 and 6). In a freeze-thaw study (6-Oxo-PIP, FIG. 6; and P6C/P6CH, FIG. 7) and a 4-month stability study (FIG. 8 and FIG. 9B), fresh urine samples (400 μL) were aliquoted into 1.5 mL Eppendorf tubes and stored either at room temperature (22±2° C.), regular freezer (−13±3° C.) or deep freezer (−77±3° C.) and sampled over a four-month period. First, both biomarkers Δ^1-P6C/P6CH and 6-Oxo-PIP were stable via four freeze-thaw cycles (6-Oxo-PIP FIG. 6; and Δ^1-P6C/P6CH FIG. 7). The initial 6-Oxo-PIP concentrations observed with patient one and patient two were 298±23 and 440±4 μM, respectively. […] The original concentrations of Δ^1-P6C/P6CH for patient one and two were 16.1±1.9 μM and 27.1±2.0 μM, respectively, an order of magnitude less than 6-oxo-PIP. […] Even after 126 days storage, roughly half of the Δ^1-P6C/P6CH from the original sample (day 1) remained.

[3] = Four freeze-thaw cycle stability in urine; format: physicochemical, human; settings: urine from PDE patients
Description: as §1, §2

[4] = Cytosolic, S9, mitochondrial and plasma metabolism of lysine metabolites; format: in vitro ADME, human
Description: Cytosolic and mitochondrial metabolism of lysine metabolites: Human liver cytosol 100 μL (10 mg/mL) or S9 fraction 100 μL (20 mg/mL) and 100 μL NAD+ (1.2 mM final) in 400 μL PBS pH 7.4 were preincubated at 37° C. for 5 min, followed by addition of 100 μL Δ1-P6C (100 μM); 100 μL samples were taken at 0.5, 5, 20 and 50 min, added to 300 μL 1:1 MeOH:ACN and analysed by LC-MS/MS. To probe potential phase II metabolism, 100 μL human liver microsomes (20 mg protein/mL) were similarly incubated with 4.0 mM UDPGA.
Human liver mitochondria were freshly prepared by homogenization of a human liver sample with a Teflon pestle in 5% weight to volume Zheng buffer (Zheng et al. 1990, Biochim Biophys Acta 1019:1-10), and after centrifugation at 5600 g for 5 min, the supernatant was transferred to a centrifuge tube; this procedure was repeated on the resuspended pellet a second time. Both supernatants were combined, centrifuged at 37,500 g for 5 min, the resulting pellet resuspended in Zheng buffer, homogenized and similarly pelleted again, and resuspended in 300 μL Zheng buffer to provide a mitochondrial preparation, with protein concentration determined using the Bio-Rad Protein Assay. To access the mitochondrial matrix, the homogenate was subjected to 3 freeze-thaw cycles, followed by 2×7 bursts of sonication on ice using a Branson 450 digital sonifier with a 2-inch cup horn at 30% amplitude. Of this mitochondrial preparation 100 μL was similarly incubated with Δ1-P6C and analyzed as above.
Albeit small, the formation of 6-oxo-PIP raises the possibility of a second pathway. […] Thus, this alternative mechanism to AAA is not a major pathway.

[5] = Blood spot stability at room temperature; format: physicochemical, human; settings: blood spots (Whatman 903) stored at room temperature
Excerpt: as §1

- concentration ([1]; Subject 2, day 0): 387.6 µM
- concentration ([1]; Subject 2, day 60): 340.7 µM
- concentration ([2]; Room Temperature, Subject 1, day 0): 298 ± 23 µM and 297.0 µM
- concentration ([2]; Room Temperature, Subject 1, day 0, listed as 6-Oxo-PIP): 298 ± 23 µM
- concentration ([2]; Room Temperature, Subject 1, day 1): 294.8 µM
- concentration ([2]; Room Temperature, Subject 1, day 2): 283.5 µM
- concentration ([2]; Room Temperature, Subject 1, day 3): 30.1 µM
- concentration ([2]; Room Temperature, Subject 1, day 5): 257.6 µM
- concentration ([2]; Room Temperature, Subject 1, day 7): 252.1 µM
- concentration ([2]; Room Temperature, Subject 1, day 10): 234.7 µM
- concentration ([2]; Room Temperature, Subject 1, day 14): 233.0 µM
- concentration ([2]; Room Temperature, Subject 1, day 21): 197.5 µM
- concentration ([2]; Room Temperature, Subject 1, day 60): 182.0 µM
- concentration ([2]; Room Temperature, Subject 1, day 126): 170.0 µM
- concentration ([2]; Room Temperature, Subject 2, day 0): 440 ± 4 µM and 440.1 µM
- concentration ([2]; Room Temperature, Subject 2, day 0, listed as 6-Oxo-PIP): 440 ± 4 µM
- concentration ([2]; Room Temperature, Subject 2, day 1): 390.8 µM
- concentration ([2]; Room Temperature, Subject 2, day 2): 418.2 µM
- concentration ([2]; Room Temperature, Subject 2, day 3): 387.7 µM
- concentration ([2]; Room Temperature, Subject 2, day 5): 383.9 µM
- concentration ([2]; Room Temperature, Subject 2, day 7): 346.0 µM
- concentration ([2]; Room Temperature, Subject 2, day 10): 345.2 µM
- concentration ([2]; Room Temperature, Subject 2, day 14): 330.2 µM
- concentration ([2]; Room Temperature, Subject 2, day 21): 322.6 µM
- concentration ([2]; Room Temperature, Subject 2, day 60): 312.3 µM
- concentration ([2]; Room Temperature, Subject 2, day 126): 295.3 µM
- concentration ([2]; −15° C., Subject 1, day 0): 284.8 µM
- concentration ([2]; −15° C., Subject 1, day 3): 243.1 µM
- concentration ([2]; −15° C., Subject 1, day 7): 260.8 µM
- concentration ([2]; −15° C., Subject 1, day 10): 285.1 µM
- concentration ([2]; −15° C., Subject 1, day 14): 219.7 µM
- concentration ([2]; −15° C., Subject 1, day 21): 227.7 µM
- concentration ([2]; −15° C., Subject 1, day 60): 218.4 µM
- concentration ([2]; −15° C., Subject 1, day 126): 211.5 µM
- concentration ([2]; −15° C., Subject 2, day 0): 387.6 µM
- concentration ([2]; −15° C., Subject 2, day 3): 359.0 µM
- concentration ([2]; −15° C., Subject 2, day 7): 345.0 µM
- concentration ([2]; −15° C., Subject 2, day 10): 336.5 µM
- concentration ([2]; −15° C., Subject 2, day 14): 385.3 µM
- concentration ([2]; −15° C., Subject 2, day 21): 345.2 µM
- concentration ([2]; −15° C., Subject 2, day 60): 322.3 µM
- concentration ([2]; −15° C., Subject 2, day 126): 314.3 µM
- concentration ([2]; −70° C., Subject 1, day 0): 284.8 µM
- concentration ([2]; −70° C., Subject 1, day 3): 298.2 µM
- concentration ([2]; −70° C., Subject 1, day 7): 271.9 µM
- concentration ([2]; −70° C., Subject 1, day 10): 221.7 µM
- concentration ([2]; −70° C., Subject 1, day 14): 218.9 µM
- concentration ([2]; −70° C., Subject 1, day 21): 217.4 µM
- concentration ([2]; −70° C., Subject 1, day 60): 211.3 µM
- concentration ([2]; −70° C., Subject 1, day 126): 198.4 µM
- concentration ([2]; −70° C., Subject 2, day 3): 356.4 µM
- concentration ([2]; −70° C., Subject 2, day 7): 329.2 µM
- concentration ([2]; −70° C., Subject 2, day 10): 380.3 µM
- concentration ([2]; −70° C., Subject 2, day 14): 418.3 µM
- concentration ([2]; −70° C., Subject 2, day 21): 320.1 µM
- concentration ([2]; −70° C., Subject 2, day 126): 322.7 µM
- initial decrease within the first two weeks ([2]; urine, regardless of storage temperature): 20-21%
- decrease at 126 days ([2]; urine, subject 1): 43%
- decrease at 126 days ([2]; urine, subject 2): 33%
- stability via four freeze-thaw cycles [3]: stable
- signal in blood spots [5]: noted in the initial blood spot
SMILES: O=C1CCC[C@@H](C(=O)O)N1 [6-oxo-PIP, (S)-6-oxopiperidine-2-carboxylic acid]
- stability at room temperature ([2]; urine samples stored at room temperature (22±2° C.)): considerably more stable than Δ^1-P6C/P6CH; also recorded: measurable for up to four months
- conversion to AAA (hydrolytic ring opening) ([4]; incubation with human S9): none of these experiments showed a conversion
- conversion to AAA (hydrolytic ring opening) ([4]; incubation with human cytosol): none of these experiments showed a conversion
- conversion to AAA (hydrolytic ring opening) ([4]; incubation with human plasma (e.g. esterase activity)): none of these experiments showed a conversion

Reference: patent US12025596B2, “6-oxo-pipecolic acid quantitation by mass spectrometry” (THE REGENTS OF THE UNIVERSITY OF COLORADO, priority 2018, dated 2024)
